# According to patent US20110275661A1, “TRICYCLIC NITROGEN COMPOUNDS USED AS ANTIBACTERIALS” (Glaxo Group Limited, priority 2008, published 2011):
# Structures can show the parent of a compound that is named as a salt. Where two headings read alike, the source gives them in different places.
# Test system: Mycobacterium tuberculosis H37Rv
# Assay: Mycobacterium tuberculosis H37Rv Inhibition Assay
# Type: cell-based
# Details: ATCC 25618 / H37Rv, read-out: MIC value
# [1] = H37Rv strain (ATCC25618), Middlebrook 7H9+ADC medium, resazurin fluorescence
smiles,measurement,setting,value
"Cc1cc(=O)n2c3c1ccc(=O)n3[C@H](CN1CCC(NCc3cc4c(cn3)OCCC4)CC1)C2 [Example 1, (1R)-1-({4-[(3,4-dihydro-2H-pyrano[2,3-c]pyridin-6-ylmethyl)amino]-1-piperidinyl}methyl)-6-methyl-1,2-dihydro-4H,9H-imidazo[1,2,3-4]-1,8-naphthyridine-4,9-dione hydrochloride]",MIC,[1],< 2 µg/mL
"Cc1cc(=O)n2c3c1ccc(=O)n3[C@H](CN1CCC(NCc3cc4c(cn3)OCS4)CC1)C2 [Example 4, (1R)-6-methyl-1-({4-[([1,3]oxathiolo[5,4-c]pyridin-6-ylmethyl)amino]-1-piperidinyl}methyl)-1,2-dihydro-4H,9H-imidazo[1,2,3-4]-1,8-naphthyridine-4,9-dione hydrochloride]",MIC,[1],< 2 µg/mL
"Cc1cc(=O)n2c3c1ccc(=O)n3[C@H](CN1CCC(NCc3cc4c(cn3)OCCO4)CC1)C2 [Example 3, (1R)-1-({4-[(2,3-dihydro[1,4]dioxino[2,3-c]pyridin-7-ylmethyl)amino]-1-piperidinyl}methyl)-6-methyl-1,2-dihydro-4H,9H-imidazo[1,2,3-ij]-1,8-naphthyridine-4,9-dione hydrochloride]",MIC,,> 2.5 µg/mL
"Cc1cc(=O)n2c3c1ccc(=O)n3[C@H](CN1CCC(NCc3cc4c(cn3)OCCS4)CC1)C2 [Example 2, (1R)-1-({4-[(2,3-dihydro[1,4]oxathiino[2,3-c]pyridin-7-ylmethyl)amino]-1-piperidinyl}methyl)-6-methyl-1,2-dihydro-4H,9H-imidazo[1,2,3-ij]-1,8-naphthyridine-4,9-dione hydrochloride]",MIC,,< 2 µg/mL
